# Experimental data published in PMC12706794, “Identification and Characterization of a Small-Molecule Inhibitor of the Pseudomonas aeruginosa SOS Response” (ACS Infectious Diseases, 2025).
# Tests used:
# [1] = target: T1, RecAPa*-induced full-length LexAPa autoproteolysis (Pseudomonas aeruginosa, UniProt P37452); assay: RecAPa*-induced LexAPa autoproteolysis assay by SDS-PAGE; format: biochemical, P. aeruginosa; conditions: 1 μM full-length LexAPa, 1 μM RecA*Pa, 1 h at 37 °C
# T1 construct: Full-length LexAPa was used instead of FlAsH-LexAPa ^CTD; made in house; host or cells: E. coli BL21(DE3)
# T1 sequence (P37452 2-204): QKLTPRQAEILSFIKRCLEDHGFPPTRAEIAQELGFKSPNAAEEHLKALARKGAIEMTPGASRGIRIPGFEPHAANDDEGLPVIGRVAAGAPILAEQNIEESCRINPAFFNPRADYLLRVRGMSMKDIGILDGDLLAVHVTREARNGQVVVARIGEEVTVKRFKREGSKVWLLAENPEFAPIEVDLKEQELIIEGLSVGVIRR
# Protocol: To further validate the activity of A12 on RecA*Pa-LexAPa, an assay was performed using full-length LexAPa, and autoproteolysis was followed by SDS-PAGE in the presence of different concentrations of A12 (Figure E). Cleavage reactions were performed at 1 μM full-length LexAPa, initiated by the addition of 1 μM RecA*Pa, and stopped after a 1 h incubation at 37 °C, corresponding to the same conditions used for the FP assay.
# SDS-PAGE was used as an orthogonal technique to FP to validate the dose-dependent inhibition of RecAPa*-induced LexAPa autocleavage by the selected hit compound.
# Full-length LexAPa was used instead of FlAsH-LexAPa ^CTD, but reaction volumes, molar concentrations of reagents, incubation time, and temperature were kept the same as in the FP-based assay. Following 1 h of incubation at 37 °C in the presence of RecAPa*, reactions were stopped by adding Laemmli solubilization buffer and freezing the samples at −20 °C.
# Samples were boiled 5 min at 95 °C before being loaded on 4–12% polyacrylamide gels. After Coomassie staining of the gels, the intensity of the bands corresponding to LexAPa and its autoproteolytic fragments was quantified using ImageJ. Data obtained from LexACTD/NTD bands densitometry were used to estimate LexA self-cleavage percent inhibition (scaling all the data from 0%, positive control, to 100%, negative control). […]
# LexAPa S125A = target: T2, LexAPa S125A (Pseudomonas aeruginosa, UniProt P37452, S125A); assay: Differential scanning fluorimetry (thermal shift) on LexAPa S125A; format: binding, P. aeruginosa; conditions: A12 above 100 μM
# T2 construct: Concerning full-length LexAPa ^S125A, a biphasic melting curve was obtained for the pure protein; made in house; host or cells: E. coli BL21(DE3)
# T2 sequence (P37452 2-204 S125A): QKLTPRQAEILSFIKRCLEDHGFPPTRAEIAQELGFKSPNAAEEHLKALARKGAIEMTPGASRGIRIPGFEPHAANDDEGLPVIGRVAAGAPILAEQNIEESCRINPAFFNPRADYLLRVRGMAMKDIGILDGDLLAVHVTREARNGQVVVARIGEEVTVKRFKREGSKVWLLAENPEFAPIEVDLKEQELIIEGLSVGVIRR
# Protocol: To elucidate whether A12 binds RecAPa or LexAPa, the two proteins were submitted to a thermal shift assay by DSF, in the presence of different concentrations of A12 (30–1000 μM; Figure A–C). Controls devoid of A12 were included, as well.
# Fluorescence of the SyproOrange dye was measured by a StepOne Real-Time PCR System (Applied Biosystems), while increasing the temperature from 25 to 95 °C (0.5 °C/min). Normalized fluorescence intensity curves were compared to observe macroscopic differences in the recorded melting profiles, while derivative curves were analyzed to find exact protein melting temperatures (T m, corresponding to derivative curve minimum). Melting curves were repeated twice, and duplicates were considered coherent if T m differences were lower than 1 °C.
# A549 cells = assay: Cytotoxicity assessment by MTT assay, A549; format: cell-based, Human; conditions: combination of ciprofloxacin 0.5 μg/mL and A12 100 μg/mL, 3 h
# Protocol: (§1) A549 cells were seeded in flat-bottom 96-well plates at 5 × 10^4 cells/well. THP-1 monocytes were differentiated into macrophages using PMA as described above, rested in PMA-free medium, detached by trypsinization, and seeded at 5 × 10^4 cells/well. Plates were incubated overnight to allow cell attachment. […] Test medium was then removed and replaced with fresh medium containing 0.5 mg/mL 3-(4,5-dimethylthiazol-2-yl)-2,5-diphenyltetrazolium bromide (MTT). After a 2 h incubation, the medium was discarded, formazan crystals were solubilized with 100 μL of DMSO, and absorbance was measured at 570 nm using a spectrophotometer (Varioskan LUX Multimode Microplate Reader, Thermo Fisher Scientific). Cell viability was expressed as a percentage relative to the untreated controls.
# [2] = test system: THP-1-derived macrophages; assay: Cytotoxicity assessment by MTT assay, THP-1-derived macrophages; format: cell-based, Human; conditions: combination of ciprofloxacin 0.5 μg/mL and A12 100 μg/mL, 3 h
# Protocol: as §1
# [3] = Solubility in aqueous buffers; format: physicochemical; conditions: aqueous buffer, read-out: Solubility in aqueous buffers, concentration above which it strongly worsened
# LexAPa = target: T3, LexAPa (Pseudomonas aeruginosa, UniProt P37452); assay: ESI-MS analysis of LexAPa preincubated with A12; format: binding, P. aeruginosa; conditions: 2 mM A12, 2 h at 25 °C; disulfide bond at Cys104, lost with 5 mM DTT
# T3 construct: different LexAPa variants (FlAsH-LexAPa ^CTD vs full-length LexAPa) were used in the two assays; made in house; host or cells: E. coli BL21(DE3)
# T3 sequence (P37452 whole entry): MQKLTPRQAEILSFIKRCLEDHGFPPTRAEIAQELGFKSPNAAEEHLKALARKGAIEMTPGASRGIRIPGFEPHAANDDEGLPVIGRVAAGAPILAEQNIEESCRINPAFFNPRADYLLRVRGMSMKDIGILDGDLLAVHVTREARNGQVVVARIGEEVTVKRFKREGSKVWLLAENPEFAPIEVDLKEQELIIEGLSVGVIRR
# Protocol: Then, ESI-MS analysis was carried out on both RecAPa and LexAPa alone and preincubated with A12 (referred to as RecAPa-A12 and LexAPa-A12, respectively).
# MS analysis was carried out on 5 μL samples of compound A12 (2 mM), of the proteins 6His-LexAPa and 6His-RecAPa (50 μM), and of the same proteins incubated with 2 mM A12 (2 h incubation at 25 °C, 10% v/v DMSO in 100 mM NaHCO3 pH 7.0). Aliquots of the latter samples were treated with 5 mM dithiothreitol (DTT) for 1 h at 25 °C before being buffer-exchanged in 100 mM NaHCO3 at pH 7.0. Samples were analyzed by an electrospray ionization (ESI) mass spectrometer equipped with a Xevo G2-XS ESI-Q-TOF mass spectrometer (Waters Corporation, Milford, Massachusetts, USA). Measurements were carried out at 1.5–1.8 kV capillary voltage and 30–40 V cone voltage.
# Tryptic digestion was obtained at a 1:20 trypsin to protein ratio (by weight) after the incubation of the proteins (6His-LexAPa and 6His-RecAPa) with chemical compound A12. The reaction was left at 37 °C overnight and then stopped by freezing at – 20 °C. Proteolytic mixtures were analyzed by LC–MS, using an Agilent AdvanceBio Peptide Map column (2.1 × 150 mm × 2.7 μm; Santa Clara, CA, USA) connected to an Acquity H-Class instrument (Waters Corporation, Milford, Massachusetts, USA). […]
smiles,measurement,setting,value
"O=C(O)CCNc1ccccc1S [A12, 3-(2-sulfanylanilino)propanoic acid]",IC50,[1],58 ± 5 µM
same,LexAPa S125A flexus of monophasic melting curve,LexAPa S125A,52.0 °C
same,Cell viability compared to the untreated control,A549 cells,higher than 80%
same,Cell viability compared to the untreated control,[2],higher than 80%
same,solubility,[3],~500 µM
same,Mass difference of A12-modified LexAPa versus unmodified protein,LexAPa,195 Da
